Data on four compounds can be found in patent US20220073448A1, “METHOD FOR SYNTHESIZING CARBOXY-CONTAINING ANTHRAQUINONE DERIVATIVE, CARBOXY-CONTAINING ANTHRAQUINONE DERIVATIVE PREPARED THEREBY, AND BATTERY SYSTEM COMPRISING SAME” (CHINA SALT JINTAN CO., LTD., priority 2019, published 2022).

A short description of the series: Cyclic voltammetry (CV), three-electrode system, glassy carbon working electrode, Ag/AgCl reference electrode. It counts as physicochemical. To be noted: 2 mM in potassium hydroxide aqueous solution at pH=14, scan rate 20 mV/s, in V. From the text: In the cyclic voltammetry test of the electric pair, the CS Series electrochemical workstation from Wuhan Corrtest Instruments Corp., Ltd. was used to test the electrochemical performance of the organic electric pair with a three-electrode system. The working electrode was a glassy carbon electrode (Tianjin IDA Hengsheng Co.), the reference electrode was a Ag/AgCl electrode, the counter electrode was a platinum electrode, the scan range of the electric pair of positive electrode and negative electrode was −1.0 to 1.0 V, and the scan rate was 20 mV·s^−1.
A 1-[N-(5-carboxybutylacyl)]aminoanthraquinone solution (at a concentration of 2 mM, in a potassium hydroxide aqueous solution at pH=14) was investigated by cyclic voltammetry (CV).
A 1-[N-(6-carboxypentylacyl)]aminoanthraquinone solution (at a concentration of 2 mM, in a potassium hydroxide aqueous solution at pH=14) was investigated by cyclic voltammetry (CV).
A 1-[N-(7-carboxyhexylacyl)]aminoanthraquinone solution (at a concentration of 2 mM, in a potassium hydroxide aqueous solution at pH=14) was investigated by cyclic voltammetry (CV).
A 1-[N-(8-carboxyheptylacyl)]aminoanthraquinone solution (at a concentration of 2 mM, in a potassium hydroxide aqueous solution at pH=14) was investigated by cyclic voltammetry (CV).
Consider “1-[N-(7-carboxyhexylacyl)]aminoanthraquinone”, for which the “redox peak in CV curve” value is ~−0.60 and the “redox peak in CV curve (more negative)” value is reported as ~−0.67.

`O=C(O)CCCCC(=O)Nc1cccc2c1C(=O)c1ccccc1C2=O` [1-[N-(5-carboxybutylacyl)]aminoanthraquinone]: the “redox peak in CV curve” value is ~−0.60 and the “redox peak in CV curve (more negative)” value is ~−0.65.

For the compound `O=C(O)CCCCC(=O)Nc1cccc2c1C(=O)c1ccccc1C2=O` [1-[N-(6-carboxypentylacyl)]aminoanthraquinone], the “redox peak in CV curve” value is listed as ~−0.60 and the “redox peak in CV curve (more negative)” value was ~−0.66.

Take `O=C(O)CCCCCCCC(=O)Nc1cccc2c1C(=O)c1ccccc1C2=O` [1-[N-(8-carboxyheptylacyl)]aminoanthraquinone]: the “redox peak in CV curve” value is listed as ~−0.60 and the “redox peak in CV curve (more negative)” value is given as ~−0.68.
